{
  "source": "ChEMBL document CHEMBL3763012",
  "about": "“From Sphingosine Kinase to Dihydroceramide Desaturase: A Structure-Activity Relationship (SAR) Study of the Enzyme Inhibitory and Anticancer Activity of 4-((4-(4-Chlorophenyl)thiazol-2-yl)amino)phenol (SKI-II)” (J Med Chem, 2016)",
  "key": {"Sphingosine kinase 1 [1]": {"biological_target": "T1, Sphingosine kinase 1 (Homo sapiens, UniProt Q9NYA1)", "T1 sequence (Q9NYA1 whole entry)": "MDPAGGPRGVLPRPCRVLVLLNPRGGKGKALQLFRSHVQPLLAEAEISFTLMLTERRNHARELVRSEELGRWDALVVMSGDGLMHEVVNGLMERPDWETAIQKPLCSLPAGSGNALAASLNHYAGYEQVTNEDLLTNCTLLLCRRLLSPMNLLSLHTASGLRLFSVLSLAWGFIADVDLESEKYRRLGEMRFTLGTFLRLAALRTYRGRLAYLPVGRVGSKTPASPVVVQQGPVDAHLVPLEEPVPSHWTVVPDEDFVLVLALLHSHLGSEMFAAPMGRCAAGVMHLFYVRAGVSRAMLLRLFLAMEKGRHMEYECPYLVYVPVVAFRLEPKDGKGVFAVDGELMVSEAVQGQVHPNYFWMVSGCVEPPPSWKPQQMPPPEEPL", "experiment": "Inhibition of SK1 (unknown origin)"}, "Sphingosine kinase 2 [2]": {"biological_target": "T2, Sphingosine kinase 2 (Homo sapiens, UniProt Q9NRA0)", "T2 sequence (Q9NRA0 whole entry)": "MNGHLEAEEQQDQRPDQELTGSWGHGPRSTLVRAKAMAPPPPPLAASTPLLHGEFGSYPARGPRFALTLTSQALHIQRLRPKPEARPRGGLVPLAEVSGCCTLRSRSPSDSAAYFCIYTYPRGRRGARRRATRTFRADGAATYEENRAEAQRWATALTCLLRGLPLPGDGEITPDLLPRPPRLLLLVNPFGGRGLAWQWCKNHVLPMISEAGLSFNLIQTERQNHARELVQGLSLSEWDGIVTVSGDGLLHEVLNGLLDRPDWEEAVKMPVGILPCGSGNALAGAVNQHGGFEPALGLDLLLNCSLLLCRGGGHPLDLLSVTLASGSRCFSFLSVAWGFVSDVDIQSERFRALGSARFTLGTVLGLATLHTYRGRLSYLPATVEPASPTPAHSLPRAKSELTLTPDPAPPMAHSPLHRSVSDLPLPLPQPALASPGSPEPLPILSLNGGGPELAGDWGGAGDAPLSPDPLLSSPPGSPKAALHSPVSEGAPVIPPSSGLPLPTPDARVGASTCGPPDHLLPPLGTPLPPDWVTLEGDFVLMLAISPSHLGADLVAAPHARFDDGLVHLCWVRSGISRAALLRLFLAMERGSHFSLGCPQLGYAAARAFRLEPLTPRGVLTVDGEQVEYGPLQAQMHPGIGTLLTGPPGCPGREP", "experiment": "Inhibition of SK2 (unknown origin)"}, "[3]": {"biological_target": "T3, Sphingolipid delta(4)-desaturase DES1 (Homo sapiens) (UniProt O15121)", "T3 sequence (whole entry)": "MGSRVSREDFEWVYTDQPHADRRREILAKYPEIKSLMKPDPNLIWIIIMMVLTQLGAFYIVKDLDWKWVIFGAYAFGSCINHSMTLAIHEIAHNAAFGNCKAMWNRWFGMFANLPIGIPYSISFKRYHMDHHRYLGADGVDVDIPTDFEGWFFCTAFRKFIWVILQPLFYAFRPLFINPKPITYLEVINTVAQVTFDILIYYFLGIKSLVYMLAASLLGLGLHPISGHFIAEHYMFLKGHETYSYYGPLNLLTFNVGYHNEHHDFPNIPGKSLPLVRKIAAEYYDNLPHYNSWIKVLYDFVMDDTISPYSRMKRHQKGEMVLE", "experiment": "Inhibition of Des1 activity in human Jurkat cells using fluorescence labeled DhCer-C6-NBD as substrate at 1 and 10 uM after 3 hrs by HPLC method", "assay_type": "cell-based"}, "[4]": {"biological_target": "T3, Sphingolipid delta(4)-desaturase DES1 (Homo sapiens)", "experiment": "Inhibition of Des1 (unknown origin) at 30 uM"}, "[5]": {"biological_target": "T3, Sphingolipid delta(4)-desaturase DES1 (Homo sapiens)", "experiment": "Inhibition of Des1 activity in human Jurkat cells using fluorescence labeled DhCer-C6-NBD as substrate at 10 uM after 3 hrs by HPLC method", "assay_type": "cell-based"}, "[6]": {"experiment": "Cytotoxicity against human PC3 cells after 72 hrs by MTT assay", "assay_type": "functional", "conditions": "PC-3, 72 h"}, "[7]": {"biological_target": "T4, Sphingolipid delta(4)-desaturase DES1 (Homo sapiens, UniProt O15121)", "T4 sequence (O15121 whole entry)": "T3 sequence (whole entry)", "experiment": "Drug metabolism in human Jurkat cells assessed as DES1-mediated (2E,4E,6E,8E)-3,7-dimethyl-N-(4-oxocyclohexa-2,5-dienylidene)-9-(2,6,6-trimethylcyclohex-1-enyl)nona-2,4,6,8-tetraenamide formation", "assay_type": "ADME, cell-based"}, "[8]": {"biological_target": "T3, Sphingolipid delta(4)-desaturase DES1 (Homo sapiens)", "experiment": "Inhibition of Des1 activity in human Jurkat cells using fluorescence labeled DhCer-C6-NBD as substrate at 0.1 to 10 uM after 3 hrs by HPLC method", "assay_type": "cell-based"}, "[9]": {"experiment": "Antiproliferative activity against human PC3 cells after 72 hrs by MTS assay", "assay_type": "functional", "conditions": "PC-3, 72 h"}, "HEK293": {"test_system": "HEK293", "experiment": "Induction of SK1 degradation in HEK293 cells at 10 uM after 16 hrs by western blotting analysis in presence of proteasome inhibitor MG132", "assay_type": "functional, cell-based", "conditions": "Homo sapiens"}, "[10]": {"biological_target": "T5, Sphingosine kinase 2 (Homo sapiens) (UniProt Q9NRA0)", "T5 sequence (whole entry)": "T2 sequence (Q9NRA0 whole entry)", "experiment": "Inhibition of recombinant human SK2 assessed as production of [32P] S1P using sphingosine as substrate at 10 uM by TLC method in presence of 100 uM [gamma32P]-ATP relative to control; values are per cent of control"}, "PC-3 [11]": {"test_system": "PC-3", "experiment": "Increase in total dhCer level in human PC3 cells at 10 uM after 5 hrs by LC-MS analysis", "assay_type": "functional, cell-based"}, "PC-3 [12]": {"test_system": "PC-3", "experiment": "Anticlonogenic activity against human PC3 cells at 0.05 to 10 uM after 21 days by soft agar colony forming assay", "assay_type": "functional, cell-based"}, "Sphingosine kinase 2 [13]": {"biological_target": "T2, Sphingosine kinase 2", "experiment": "Inhibition of recombinant SK2 (unknown origin) expressed in Sf9 cells assessed as [33P]S1P formation using D-erythro sphingosine as substrate and gamma[33P]ATP by liquid scintillation counting"}, "Sphingosine kinase 1 [14]": {"biological_target": "T1, Sphingosine kinase 1", "experiment": "Inhibition of human SK1 using D-erythro sphingosine as substrate and gamma[33P]ATP by Lineweaver-Burk plot analysis"}, "Sphingosine kinase 2 [15]": {"biological_target": "T2, Sphingosine kinase 2", "experiment": "Inhibition of human SK2 using D-erythro sphingosine as substrate and gamma[33P]ATP by Lineweaver-Burk plot analysis"}, "Sphingosine kinase 1 [16]": {"biological_target": "T1, Sphingosine kinase 1", "experiment": "Inhibition of recombinant His-tagged human SK1 assessed as production of [32P]-S1P using 10 uM sphingosine as substrate by TLC method in presence of 1 mM [gamma32P]-ATP"}, "Sphingosine kinase 2 [17]": {"biological_target": "T2, Sphingosine kinase 2", "experiment": "Inhibition of recombinant human SK2 assessed as production of [32P] S1P using 10 uM sphingosine as substrate by TLC method in presence of 1 mM [gamma32P]-ATP relative to control"}, "[18]": {"biological_target": "T3, Sphingolipid delta(4)-desaturase DES1 (Homo sapiens)", "experiment": "Irreversible inhibition of Des1 activity in human Jurkat cells treated with parent compound treated with fenretinide using fluorescence labeled DhCer-C6-NBD as substrate by HPLC method", "assay_type": "cell-based", "conditions": "TDE = time-dependent effect"}, "[19]": {"biological_target": "T4, Sphingolipid delta(4)-desaturase DES1", "experiment": "Drug level in human Jurkat cells assessed as DES1-mediated compound oxidation treated with fenretinide", "assay_type": "ADME, cell-based"}},
  "note": "Calls of active or inactive are those of the source. No cut-off for these calls is given here.",
  "data": [
    {"smiles": "OC[C@H]1C[C@H](O)CN1CCCc1ccc(Nc2nc(-c3cccc(C(F)(F)F)c3)cs2)cc1", "values": [
      {"measurement": "IC50", "setting": "Sphingosine kinase 1 [1]", "result": 0.02, "unit": "µM"},
      {"measurement": "IC50", "setting": "Sphingosine kinase 2 [2]", "result": 0.148, "unit": "µM"}
    ]},
    {"smiles": "N/C(=N\\O)c1ccc(Nc2nnc(-c3ccc(Cl)cc3)o2)cc1", "values": [
      {"measurement": "inhibition", "setting": "[3]", "result": "Active"}
    ]},
    {"smiles": "O=C(NCc1ccncc1)C12CC3CC(C1)CC(c1ccc(Cl)cc1)(C3)C2", "values": [
      {"measurement": "inhibition", "setting": "[4]", "result": 40, "unit": "%"}
    ]},
    {"smiles": "N/C(=N\\O)c1ccc(-c2nnc(-c3ccc(Cl)cc3)o2)cc1", "values": [
      {"measurement": "inhibition", "setting": "[5]", "result": "inactive"}
    ]},
    {"smiles": "CC1=C(/C=C/C(C)=C/C=C/C(C)=C/C(=O)Nc2ccc(O)cc2)C(C)(C)CCC1", "note": "[FENRETINIDE]", "values": [
      {"measurement": "GI50", "setting": "[6]", "result": 2, "unit": "µM"},
      {"measurement": "Drug metabolism", "setting": "[7]", "result": "metabolite_detected"}
    ]},
    {"smiles": "Oc1ccc(Nc2nnc(-c3ccc(I)cc3)o2)cc1", "values": [
      {"measurement": "inhibition", "setting": "[8]", "result": "Active"}
    ]},
    {"smiles": "CCCCCCCc1nc(-c2ccc(CNC(=O)[C@H]3NCC[C@@H]3O)cc2)no1", "values": [
      {"measurement": "GI50", "setting": "[9]", "result": "> 100", "unit": "µM"},
      {"measurement": "Activity", "setting": "HEK293", "result": "Active"},
      {"measurement": "residual activity", "setting": "[10]", "result": 112, "unit": "%"}
    ]},
    {"smiles": "Oc1ccc(-c2nnc(-c3ccc(Cl)cc3)o2)cc1", "values": [
      {"measurement": "inhibition", "setting": "[8]", "result": "inactive"}
    ]},
    {"smiles": "Cc1cc(CS(=O)(=O)c2ccccc2)cc(OCc2ccc(CN3CCC[C@@H]3CO)cc2)c1", "values": [
      {"measurement": "GI50", "setting": "[9]", "result": 19, "unit": "µM"},
      {"measurement": "Activity", "setting": "HEK293", "result": "Active"},
      {"measurement": "residual activity", "setting": "[10]", "result": 45, "unit": "%"}
    ]},
    {"smiles": "Oc1ccc(Nc2nc(-c3ccc(Cl)cc3)cs2)cc1", "values": [
      {"measurement": "GI50", "setting": "[9]", "result": 11, "unit": "µM"},
      {"measurement": "Activity", "setting": "HEK293", "result": "Active"},
      {"measurement": "inhibition", "setting": "[8]", "result": "Active"},
      {"measurement": "Activity", "setting": "PC-3 [11]", "result": "Active"},
      {"measurement": "Activity", "setting": "PC-3 [12]", "result": "Active"},
      {"measurement": "residual activity", "setting": "[10]", "result": 90, "unit": "%"}
    ]},
    {"smiles": "CCCCCCCCc1ccc(-c2noc([C@H]3CCCN3C(=N)N)n2)cc1", "values": [
      {"measurement": "Ki", "setting": "Sphingosine kinase 2 [13]", "result": 1.3, "unit": "µM"}
    ]},
    {"smiles": "Cc1ccc(S(=O)(=O)Nc2ccccc2/C=N/c2ccccc2NS(=O)(=O)c2ccc(C)cc2)cc1", "values": [
      {"measurement": "Ki", "setting": "Sphingosine kinase 1 [14]", "result": 27, "unit": "µM"},
      {"measurement": "Ki", "setting": "Sphingosine kinase 2 [15]", "result": 6.9, "unit": "µM"}
    ]},
    {"smiles": "Oc1ccc(Nc2nnc(-c3ccc(Cl)cc3)o2)cc1", "values": [
      {"measurement": "inhibition", "setting": "[8]", "result": "Active"}
    ]},
    {"smiles": "Clc1ccc(-c2nnc(NCc3ccncc3)o2)cc1", "values": [
      {"measurement": "GI50", "setting": "[9]", "result": "> 100", "unit": "µM"},
      {"measurement": "IC50", "setting": "Sphingosine kinase 1 [16]", "result": 3.1, "unit": "µM"},
      {"measurement": "IC50", "setting": "Sphingosine kinase 2 [17]", "result": 5.5, "unit": "µM"},
      {"measurement": "residual activity", "setting": "[10]", "result": 39, "unit": "%"}
    ]},
    {"smiles": "Clc1ccc(-c2nnc(Nc3ccc(-c4nn[nH]n4)cc3)o2)cc1", "values": [
      {"measurement": "GI50", "setting": "[9]", "result": 15, "unit": "µM"},
      {"measurement": "residual activity", "setting": "[10]", "result": 70, "unit": "%"}
    ]},
    {"smiles": "CC1=C(/C=C/C(C)=C/C=C/C(C)=C/C(=O)N=C2C=CC(=O)C=C2)C(C)(C)CCC1", "values": [
      {"measurement": "inhibition", "setting": "[18]", "result": "tde"},
      {"measurement": "Drug metabolism", "setting": "[19]", "result": "metabolite_detected"}
    ]}
  ]
}
